Laboratory results: PubChem BioAssay (NCI)
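Where inhibition never reached the appropriate level, the endpoint shown equals the highest concentration tested. Otherwise, values were interpolated linearly from a five-concentration, 48-hour dose response in 96-well plates. GI50: concentration for 50% inhibition of growth. TGI is the concentration that stops growth completely.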

Key:
Test in all cases: DTP human tumour cell line panel, 48 h
IGROV1 ovarian = tested on: IGROV1 ovarian
ACHN renal = tested on: ACHN renal
LOX IMVI melanoma = tested on: LOX IMVI melanoma
RPMI-8226 leukemia = tested on: RPMI-8226 leukemia
HCT-116 colon = tested on: HCT-116 colon
A549 NSCLC = tested on: A549 NSCLC
SN12C renal = tested on: SN12C renal
SK-OV-3 ovarian = tested on: SK-OV-3 ovarian
HS 578T breast = tested on: HS 578T breast
UACC-257 melanoma = tested on: UACC-257 melanoma
SF-268 CNS = tested on: SF-268 CNS
RXF 393 renal = tested on: RXF 393 renal
HOP-62 NSCLC = tested on: HOP-62 NSCLC
NCI/ADR-RES ovarian = tested on: NCI/ADR-RES ovarian
MOLT-4 leukemia = tested on: MOLT-4 leukemia
MCF7 breast = tested on: MCF7 breast
PC-3 prostate = tested on: PC-3 prostate
MDA-MB-435 = tested on: MDA-MB-435
CAKI-1 renal = tested on: CAKI-1 renal
SNB-75 CNS = tested on: SNB-75 CNS
SNB-19 CNS = tested on: SNB-19 CNS
SF-539 CNS = tested on: SF-539 CNS
OVCAR-3 ovarian = tested on: OVCAR-3 ovarian
NCI-H522 lung = tested on: NCI-H522 lung
T-47D breast = tested on: T-47D breast
OVCAR-4 ovarian = tested on: OVCAR-4 ovarian
MDA-MB-231 breast = tested on: MDA-MB-231 breast
MALME-3M melanoma = tested on: MALME-3M melanoma
M14 melanoma = tested on: M14 melanoma
786-0 renal = tested on: 786-0 renal
SF-295 CNS = tested on: SF-295 CNS
NCI-H460 lung = tested on: NCI-H460 lung
SK-MEL-5 melanoma = tested on: SK-MEL-5 melanoma
SK-MEL-28 melanoma = tested on: SK-MEL-28 melanoma
OVCAR-5 ovarian = tested on: OVCAR-5 ovarian
NCI-H226 lung = tested on: NCI-H226 lung
EKVX NSCLC = tested on: EKVX NSCLC
COLO 205 colon = tested on: COLO 205 colon
HOP-92 NSCLC = tested on: HOP-92 NSCLC
HL-60(TB) leukemia = tested on: HL-60(TB) leukemia
UACC-62 melanoma = tested on: UACC-62 melanoma
HT29 colon = tested on: HT29 colon
OVCAR-8 ovarian = tested on: OVCAR-8 ovarian
HCC-2998 colon = tested on: HCC-2998 colon
K-562 leukemia = tested on: K-562 leukemia
UO-31 renal = tested on: UO-31 renal
KM12 colon = tested on: KM12 colon
SK-MEL-2 melanoma = tested on: SK-MEL-2 melanoma
TK-10 renal = tested on: TK-10 renal
BT-549 breast = tested on: BT-549 breast
NCI-H23 lung = tested on: NCI-H23 lung
CCRF-CEM leukemia = tested on: CCRF-CEM leukemia
HCT-15 colon = tested on: HCT-15 colon
DU-145 prostate = tested on: DU-145 prostate
U251 CNS = tested on: U251 CNS
SW-620 colon = tested on: SW-620 colon
A498 renal = tested on: A498 renal

With Nc1nc(N)c2cc(S(=O)(=O)c3ccccc3)ccc2n1 the GI50 (IGROV1 ovarian) was 4.59 µM, the TGI (IGROV1 ovarian) was > 100 µM and the GI50 (ACHN renal) was 3.27 µM. The TGI (ACHN renal) was > 100 µM, the GI50 (LOX IMVI melanoma) was 0.516 µM and the TGI (LOX IMVI melanoma) was > 100 µM. For the same compound, the GI50 (RPMI-8226 leukemia) was 6.04 µM, the TGI (RPMI-8226 leukemia) was > 100 µM and the GI50 (HCT-116 colon) was 0.501 µM. The TGI (HCT-116 colon) was > 100 µM, the GI50 (A549 NSCLC) was 0.622 µM and the TGI (A549 NSCLC) was > 100 µM. For the same compound, the GI50 (SN12C renal) was 3.21 µM, the TGI (SN12C renal) was > 100 µM and the GI50 (SK-OV-3 ovarian) was 5.41 µM. For the same compound, the TGI (SK-OV-3 ovarian) was > 100 µM, the GI50 (HS 578T breast) was 6.93 µM and the TGI (HS 578T breast) was > 100 µM. For the same compound, the GI50 (UACC-257 melanoma) was 14.9 µM, the TGI (UACC-257 melanoma) was > 100 µM and the GI50 (SF-268 CNS) was 3.13 µM. For the same compound, the TGI (SF-268 CNS) was > 100 µM, the GI50 (RXF 393 renal) was 72.5 µM and the TGI (RXF 393 renal) was > 100 µM. The GI50 (HOP-62 NSCLC) was 4.14 µM, the TGI (HOP-62 NSCLC) was > 100 µM and the GI50 (NCI/ADR-RES ovarian) was 3.52 µM. The TGI (NCI/ADR-RES ovarian) was > 100 µM, the GI50 (MOLT-4 leukemia) was 4.31 µM and the TGI (MOLT-4 leukemia) was > 100 µM. For the same compound, the GI50 (MCF7 breast) was 2.86 µM, the TGI (MCF7 breast) was > 100 µM and the GI50 (PC-3 prostate) was 0.838 µM. For the same compound, the TGI (PC-3 prostate) was > 100 µM, the GI50 (MDA-MB-435) was 0.487 µM and the TGI (MDA-MB-435) was > 100 µM. For the same compound, the GI50 (CAKI-1 renal) was 3.45 µM, the TGI (CAKI-1 renal) was > 100 µM and the GI50 (SNB-75 CNS) was 8.86 µM. The TGI (SNB-75 CNS) was > 100 µM, the GI50 (SNB-19 CNS) was 6.84 µM and the TGI (SNB-19 CNS) was > 100 µM. For the same compound, the GI50 (SF-539 CNS) was 2.05 µM, the TGI (SF-539 CNS) was > 100 µM and the GI50 (OVCAR-3 ovarian) was 5.68 µM. The TGI (OVCAR-3 ovarian) was > 100 µM, the GI50 (NCI-H522 lung) was 4.56 µM and the TGI (NCI-H522 lung) was > 100 µM. The GI50 (T-47D breast) was 9.57 µM, the TGI (T-47D breast) was > 100 µM and the GI50 (OVCAR-4 ovarian) was 7.2 µM. For the same compound, the TGI (OVCAR-4 ovarian) was > 100 µM, the GI50 (MDA-MB-231 breast) was 8.07 µM and the TGI (MDA-MB-231 breast) was > 100 µM. The GI50 (MALME-3M melanoma) was 4.97 µM, the TGI (MALME-3M melanoma) was > 100 µM and the GI50 (M14 melanoma) was 0.506 µM. The TGI (M14 melanoma) was > 100 µM, the GI50 (786-0 renal) was 1.01 µM and the TGI (786-0 renal) was > 100 µM. For the same compound, the GI50 (SF-295 CNS) was 0.792 µM, the TGI (SF-295 CNS) was 51.9 µM and the GI50 (NCI-H460 lung) was 0.417 µM. For the same compound, the TGI (NCI-H460 lung) was > 100 µM, the GI50 (SK-MEL-5 melanoma) was 1.14 µM and the TGI (SK-MEL-5 melanoma) was > 100 µM. The GI50 (SK-MEL-28 melanoma) was 10.6 µM, the TGI (SK-MEL-28 melanoma) was > 100 µM and the GI50 (OVCAR-5 ovarian) was 2.21 µM. The TGI (OVCAR-5 ovarian) was > 100 µM, the GI50 (NCI-H226 lung) was 5.87 µM and the TGI (NCI-H226 lung) was > 100 µM. The GI50 (EKVX NSCLC) was 7.13 µM, the TGI (EKVX NSCLC) was > 100 µM and the GI50 (COLO 205 colon) was 6.99 µM. The TGI (COLO 205 colon) was > 100 µM, the GI50 (HOP-92 NSCLC) was 4.64 µM and the TGI (HOP-92 NSCLC) was 72.8 µM. The GI50 (HL-60(TB) leukemia) was 1.64 µM, the TGI (HL-60(TB) leukemia) was 31.5 µM and the GI50 (UACC-62 melanoma) was 0.511 µM. The TGI (UACC-62 melanoma) was > 100 µM, the GI50 (HT29 colon) was 0.634 µM and the TGI (HT29 colon) was > 100 µM. The GI50 (OVCAR-8 ovarian) was 1.31 µM, the TGI (OVCAR-8 ovarian) was > 100 µM and the GI50 (HCC-2998 colon) was 2.38 µM. The TGI (HCC-2998 colon) was 32.2 µM, the GI50 (K-562 leukemia) was 0.339 µM and the TGI (K-562 leukemia) was > 100 µM. The GI50 (UO-31 renal) was 13.3 µM, the TGI (UO-31 renal) was > 100 µM and the GI50 (KM12 colon) was 4.23 µM. For the same compound, the TGI (KM12 colon) was > 100 µM, the GI50 (SK-MEL-2 melanoma) was 25.3 µM and the TGI (SK-MEL-2 melanoma) was > 100 µM. The GI50 (TK-10 renal) was 4.36 µM, the TGI (TK-10 renal) was > 100 µM and the GI50 (BT-549 breast) was 6.59 µM. The TGI (BT-549 breast) was 92.3 µM, the GI50 (NCI-H23 lung) was 3.03 µM and the TGI (NCI-H23 lung) was > 100 µM. The GI50 (CCRF-CEM leukemia) was 2.93 µM, the TGI (CCRF-CEM leukemia) was > 100 µM and the GI50 (HCT-15 colon) was 1.75 µM. For the same compound, the TGI (HCT-15 colon) was > 100 µM, the GI50 (DU-145 prostate) was 5.74 µM and the TGI (DU-145 prostate) was > 100 µM. For the same compound, the GI50 (U251 CNS) was 1.24 µM, the TGI (U251 CNS) was > 100 µM and the GI50 (SW-620 colon) was 0.512 µM. The TGI (SW-620 colon) was > 100 µM, the GI50 (A498 renal) was 8.33 µM and the TGI (A498 renal) was > 100 µM.
